Assay results reported in patent publication US9302999B2, “Substituted triazoles as herbicides” (E. I. DU PONT DE NEMOURS AND COMPANY, priority 2012, dated 2016).

What was measured:
Type in all cases: in vivo
[1] = tested on: crabgrass, large (large crabgrass, Digitaria sanguinalis); assay: Test A pre-/postemergence: crabgrass, large
How it was run: (§1)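 Injury was scored visually on a 0 (no effect) to 100 (complete control) scale versus untreated controls roughly ten days after treatment in the greenhouse. Compounds, formulated in surfactant-containing non-phytotoxic solvent, went on as soil-directed preemergence spray or postemergence to one- to two-leaf plants 2–10 cm tall.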

[2] = tested on: velvetleaf (Abutilon theophrasti); assay: Test A pre-/postemergence: velvetleaf
How it was run: as §1

[3] = tested on: foxtail, giant (giant foxtail, Setaria faberii); assay: Test A pre-/postemergence: foxtail, giant
How it was run: as §1

[4] = tested on: wheat (Triticum aestivum); assay: Test A pre-/postemergence: wheat
How it was run: as §1

corn (Zea mays) = assay: Test A pre-/postemergence: corn
How it was run: as §1

[5] = tested on: sedge, umbrella (small-flower umbrella sedge Cyperus difformis); assay: Test B flooded paddy: sedge, umbrella; settings: Flood, applied to paddy water at 2-leaf stage, visually evaluated after 13 to 15 days
How it was run: (§2)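 Plants were grown to the 2-leaf stage, then pots were flooded to 3 cm above the soil and compounds were applied directly into the paddy water. Water depth was held for the whole test; after 13 to 15 days in a greenhouse, injury was visually rated against untreated controls (0 = no effect, 100 = complete control).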

rice (Oryza sativa) = assay: Test B flooded paddy: rice; settings: Flood, applied to paddy water at 2-leaf stage, visually evaluated after 13 to 15 days
How it was run: as §2

[6] = tested on: ducksalad (Heteranthera limosa); assay: Test B flooded paddy: ducksalad; settings: Flood, applied to paddy water at 2-leaf stage, visually evaluated after 13 to 15 days
How it was run: as §2

[7] = tested on: barnyardgrass (Echinochloa crus-galli); assay: Test B flooded paddy: barnyardgrass; settings: Flood, applied to paddy water at 2-leaf stage, visually evaluated after 13 to 15 days
How it was run: as §2

[8] = tested on: barnyardgrass (Echinochloa crus-galli); assay: Test A pre-/postemergence: barnyardgrass
How it was run: as §1

[9] = tested on: morningglory (Ipomoea spp.); assay: Test A pre-/postemergence: morningglory
How it was run: as §1

[10] = tested on: pigweed (Amaranthus retroflexus); assay: Test A pre-/postemergence: pigweed
How it was run: as §1

[11] = Postemergence, 125 g ai/ha, 0 to 100 scale, 0 is no effect, 100 is complete control
[12] = Postemergence, 500 g ai/ha, 0 to 100 scale, 0 is no effect, 100 is complete control
[13] = Preemergence, 125 g ai/ha, 0 to 100 scale where 0 is no effect and 100 is complete control
[14] = Preemergence, 500 g ai/ha, 0 to 100 scale (0 no effect, 100 complete control)
[15] = Postemergence, 500 g ai/ha, visual rating on 0 to 100 scale (0 no effect, 100 complete control), approximately ten days
[16] = Preemergence, 125 g ai/ha, 0 to 100 scale (0 no effect, 100 complete control)
[17] = Preemergence, 500 g ai/ha, 0 to 100 scale, 0 is no effect, 100 is complete control

SMILES: CC(C)Cc1nn(-c2ccc(C(F)(F)F)cc2)nc1Oc1ccnc(C(F)F)c1 [Compound 187]
- Plant response rating, Crabgrass, Large [1, 11]: 0
- Crabgrass, Large plant response rating [1, 12]: 0
- Plant response rating, Crabgrass, Large [1, 13]: 0
- Plant response rating, Crabgrass, Large [1, 14]: 0
- Plant response rating, Velvetleaf [2, 11]: 0
- Velvetleaf plant response rating [2, 12]: 0
- Plant response rating, Velvetleaf [2, 13]: 0
- Plant response rating, Velvetleaf [2, 14]: 0
- Plant response rating, Foxtail, Giant [3, 11]: 0
- Foxtail, Giant plant response rating [3, 12]: 0
- Plant response rating, Foxtail, Giant [3, 13]: 0
- Plant response rating, Foxtail, Giant [3, 14]: 0
- Plant response rating, Wheat [4, 11]: 0
- Wheat plant response rating [4, 12]: 0
- Plant response rating, Wheat [4, 13]: 0
- Plant response rating, Wheat [4, 14]: 0
- Plant response rating, Corn (corn (Zea mays); [11]): 0
- Corn plant response rating (corn (Zea mays); [12]): 0
- Plant response rating, Corn (corn (Zea mays); [13]): 0
- Plant response rating, Corn (corn (Zea mays); [14]): 0
- Plant response rating, Sedge, Umbrella (0 to 100 scale, 0 is no effect, 100 is complete control) ([5]; 125 g ai/ha): 0
- Plant response rating, Rice (0 to 100 scale, 0 is no effect, 100 is complete control) (rice (Oryza sativa); 125 g ai/ha): 0
- Plant response rating, Ducksalad (0 to 100 scale, 0 is no effect, 100 is complete control) ([6]; 125 g ai/ha): 0
- Plant response rating, Barnyardgrass (0 to 100 scale, 0 is no effect, 100 is complete control) ([7]; 125 g ai/ha): 0
- Plant response rating, Barnyardgrass [8, 11]: 0
- Barnyardgrass plant response rating [8, 12]: 0
- Plant response rating, Barnyardgrass [8, 13]: 0
- Plant response rating, Barnyardgrass [8, 14]: 0
- Plant response rating, Morningglory [9, 11]: 0
- Morningglory plant response rating [9, 12]: 0
- Plant response rating, Morningglory [9, 13]: 0
- Plant response rating, Morningglory [9, 14]: 0
- Plant response rating, Pigweed [10, 11]: 0
- Pigweed plant response rating [10, 12]: 0
- Plant response rating, Pigweed [10, 13]: 0
- Plant response rating, Pigweed [10, 14]: 0

SMILES: CCCc1nn(-c2ccc(F)cc2)nc1Cc1cccc(C(F)(F)F)c1 [Compound 149]
- Plant response rating, Crabgrass, Large [1, 11]: 80
- Crabgrass, Large plant response rating [1, 15]: 90
- Plant response rating, Crabgrass, Large [1, 13]: 90
- Plant response rating, Crabgrass, Large [1, 14]: 100
- Plant response rating, Velvetleaf [2, 11]: 60
- Velvetleaf plant response rating [2, 15]: 100
- Plant response rating, Velvetleaf [2, 13]: 20
- Plant response rating, Velvetleaf [2, 14]: 50
- Plant response rating, Foxtail, Giant [3, 11]: 80
- Foxtail, Giant plant response rating [3, 15]: 90
- Plant response rating, Foxtail, Giant [3, 13]: 90
- Plant response rating, Foxtail, Giant [3, 14]: 100
- Plant response rating, Wheat [4, 11]: 20
- Wheat plant response rating [4, 15]: 30
- Plant response rating, Wheat [4, 13]: 0
- Plant response rating, Wheat [4, 14]: 50
- Plant response rating, Corn (corn (Zea mays); [11]): 30
- Corn plant response rating (corn (Zea mays); [15]): 40
- Plant response rating, Corn (corn (Zea mays); [13]): 10
- Plant response rating, Corn (corn (Zea mays); [14]): 20
- Plant response rating, Sedge, Umbrella (0 to 100 scale, 0 is no effect, 100 is complete control) ([5]; 250 g ai/ha): 60
- Plant response rating, Rice (0 to 100 scale, 0 is no effect, 100 is complete control) (rice (Oryza sativa); 250 g ai/ha): 30
- Plant response rating, Ducksalad (0 to 100 scale, 0 is no effect, 100 is complete control) ([6]; 250 g ai/ha): 60
- Plant response rating, Barnyardgrass (0 to 100 scale, 0 is no effect, 100 is complete control) ([7]; 250 g ai/ha): 40
- Plant response rating, Barnyardgrass [8, 11]: 30
- Barnyardgrass plant response rating [8, 15]: 80
- Plant response rating, Barnyardgrass [8, 13]: 60
- Plant response rating, Barnyardgrass [8, 14]: 90
- Plant response rating, Morningglory [9, 11]: 90
- Morningglory plant response rating [9, 15]: 100
- Plant response rating, Morningglory [9, 13]: 10
- Plant response rating, Morningglory [9, 14]: 30
- Plant response rating, Pigweed [10, 11]: 100
- Pigweed plant response rating [10, 15]: 100
- Plant response rating, Pigweed [10, 13]: 90
- Plant response rating, Pigweed [10, 14]: 100

SMILES: Cc1nn(-c2ccc(F)cc2Cl)nc1Cc1ccnc(C(F)(F)F)c1 [Compound 65]
- Crabgrass, Large plant response rating [1, 11]: 20
- Crabgrass, Large plant response rating [1, 15]: 50
- Plant response rating, Crabgrass, Large [1, 16]: 30
- Plant response rating, Crabgrass, Large [1, 17]: 100
- Velvetleaf plant response rating [2, 11]: 30
- Velvetleaf plant response rating [2, 15]: 60
- Plant response rating, Velvetleaf [2, 16]: 0
- Plant response rating, Velvetleaf [2, 17]: 10
- Foxtail, Giant plant response rating [3, 11]: 20
- Foxtail, Giant plant response rating [3, 15]: 70
- Plant response rating, Foxtail, Giant [3, 16]: 90
- Plant response rating, Foxtail, Giant [3, 17]: 100
- Wheat plant response rating [4, 11]: 0
- Wheat plant response rating [4, 15]: 20
- Plant response rating, Wheat [4, 16]: 0
- Plant response rating, Wheat [4, 17]: 0
- Corn plant response rating (corn (Zea mays); [11]): 10
- Corn plant response rating (corn (Zea mays); [15]): 20
- Plant response rating, Corn (corn (Zea mays); [16]): 0
- Plant response rating, Corn (corn (Zea mays); [17]): 10
- Plant response rating, Sedge, Umbrella (0 to 100 scale, 0 is no effect, 100 is complete control) ([5]; 250 g ai/ha): 75
- Plant response rating, Rice (0 to 100 scale, 0 is no effect, 100 is complete control) (rice (Oryza sativa); 250 g ai/ha): 25
- Plant response rating, Ducksalad (0 to 100 scale, 0 is no effect, 100 is complete control) ([6]; 250 g ai/ha): 60
- Plant response rating, Barnyardgrass (0 to 100 scale, 0 is no effect, 100 is complete control) ([7]; 250 g ai/ha): 30
- Barnyardgrass plant response rating [8, 11]: 10
- Barnyardgrass plant response rating [8, 15]: 40
- Plant response rating, Barnyardgrass [8, 16]: 10
- Plant response rating, Barnyardgrass [8, 17]: 70
- Plant response rating, Morningglory [9, 16]: 10
- Plant response rating, Morningglory [9, 17]: 20
- Pigweed plant response rating [10, 11]: 90
- Pigweed plant response rating [10, 15]: 100
- Plant response rating, Pigweed [10, 16]: 80
- Plant response rating, Pigweed [10, 17]: 100
